Among the data in the NIST ThermoML archive (doi:10.1021/je040002p) are mass density, Normal boiling temperature and refractive index values, retold here.

The structures appear in SMILES notation. ± gives the expanded uncertainty stated by the source.

For data set [1] the following is noted: Liquid; for mass density: 101.33 kPa, Pycnometric method.
Data set [2] in a line: refractive index (Na D-line) (dimensionless). Particulars: 101.33 kPa, Liquid, Standard Abbe refractometry.

What is called mass density is the mass of a sample divided by its volume. Usually refractive index stands for the speed of light in vacuum divided by its phase velocity in the sample. Turning to `OC1CCCCC1` [cyclohexanol], the mass density in data set [1] (303.15 K) is on record as 941.6 ± 0.9 kg/m3. For the same compound, the Normal boiling temperature in data set [1] was 160.74 ± 0.14 °C. Besides, the refractive index in data set [2] (303.15 K) was 1.4621 ± 0.0007.

`CCCCCCCCC` [nonane]: the mass density in data set [1] (293.15 K) is listed as 717.6 ± 0.7 kg/m3. Also, in data set [1], the Normal boiling temperature came to 150.82 ± 0.14 °C. For the same compound, the refractive index in data set [2] (293.15 K) worked out at 1.4055 ± 0.0007.

For the compound `CCCCC(C)=O` [2-hexanone], the mass density in data set [1] (293.15 K) was 811.2 ± 0.8 kg/m3. Moreover, in data set [1], the Normal boiling temperature turned out to be 127.54 ± 0.13 °C. Besides, in data set [2] (293.15 K), the refractive index came out at 1.4008 ± 0.0007.
